Measurements as given in US8227423B2 (priority 2004, dated 2012).
Ends that are not written are not given here.

Key:
Bacillus subtilis = type: cell-based

Sequence | antibacterial effect in time kill assay (CFU) (Bacillus subtilis) | detergent-like (lytic) action (sheep red blood cells)
RFARKGALRQKNV [Protein kinase C] | no effect | 
TRKKLFHIFHATIRSR [PAD-1.17, TRKKLFHIFHATIRSR] |  | did not appear to act as a detergent
